Literature values in patent US11554003B2, “Filtration devices and methods related thereto” (The Regents of the University of California, priority 2015, dated 2023).

Settings: IAC; regardless of infused dose

COc1cccc2c1C(=O)c1c(O)c3c(c(O)c1C2=O)C[C@@](O)(C(=O)CO)C[C@@H]3O[C@H]1C[C@H](N)[C@H](O)[C@H](C)O1 [Dox, doxorubicin]
first pass hepatic clearance: 50-70%
